Measurements taken from PubChem BioAssay AID276 (DTP/NCI, 2004).
“And” between values parts separate entries of the source, which are not always exact repeats. Equal entries are not always repeated. Inconclusive results and toxic doses are left out.

Tested on: B6C3F1 mice, Lewis lung carcinoma iv, survival T/C
Test: NCI In Vivo Anticancer Drug Screen. Data for tumor model Lewis Lung Carcinoma (intravenous) in B6C3F1 mice
Conditions: endpoint: median survival time, higher = longer survival
Outline: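 T/C ratio derived from survival of compound-treated versus vehicle-treated mice bearing transplantable tumors.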

[1] = dose: 25.0 mg/kg/injection, schedule: Q01DX009 (ip), vehicle: saline with Tween-80
[2] = dose: 50.0 mg/kg/injection, schedule: Q01DX009 (ip), vehicle: saline with Tween-80
[3] = dose: 100.0 mg/kg/injection, schedule: Q01DX009 (ip), vehicle: saline with Tween-80
[4] = dose: 200.0 mg/kg/injection, schedule: Q01DX009 (ip), vehicle: saline with Tween-80
[5] = dose: 50.0 mg/kg/injection, schedule: Q01DX009 (ip), vehicle: Klucel (hydroxypropylcellulose) (HPC)
[6] = dose: 6.25 mg/kg/injection, schedule: Q01DX009 (ip), vehicle: saline
[7] = dose: 3.0 mg/kg/injection, schedule: Q01DX009 (ip), vehicle: saline
[8] = dose: 6.0 mg/kg/injection, schedule: Q01DX009 (ip), vehicle: saline
[9] = dose: 12.5 mg/kg/injection, schedule: Q01DX009 (ip), vehicle: saline with Tween-80

In the case of `Cc1ccc(N)c(N)c1`, the T/C [1] is reported as 96 % of control, the T/C [2] is reported as 98 % of control and the T/C [3] is reported as 108 % of control. For the same compound, the T/C [4] was 103 % of control.

`COC(=O)Nc1cn2ccc(Sc3ccccc3)cc2n1` was tested, and the T/C [5] was 101 % of control, the T/C (dose: 100.0 mg/kg/injection, schedule: Q01DX009 (ip), vehicle: Klucel (hydroxypropylcellulose) (HPC)) was 106 % of control and the T/C (dose: 200.0 mg/kg/injection, schedule: Q01DX009 (ip), vehicle: Klucel (hydroxypropylcellulose) (HPC)) was 101 % of control.

`C=C1C(=O)OC2/C=C(\C)CC(O)/C=C(/CO)CC(OC(=O)/C(C)=C/C)C12` (centres undefined) was tested, and the T/C (dose: 15.0 mg/kg/injection, schedule: Q01DX009 (ip), vehicle: saline with Tween-80) was 91 % of control and the T/C (dose: 30.0 mg/kg/injection, schedule: Q01DX009 (ip), vehicle: saline with Tween-80) was 101 % of control.

With `NC(=O)c1ncn2c(=O)n(CCCl)nnc12` the T/C (dose: 3.13 mg/kg/injection, schedule: Q01DX009 (ip), vehicle: saline) was 113 % of control, the T/C [6] was 123 % of control and the T/C (dose: 25.0 mg/kg/injection, schedule: Q01DX009 (ip), vehicle: saline) was 309 % of control.

With `COc1cccc2c1C(=O)c1c(O)c3c(c(O)c1C2=O)C[C@@](O)(C(C)=O)C[C@@H]3OC1CC(N)C(O)C(C)O1` (some centres undefined) the T/C (dose: 0.25 mg/kg/injection, schedule: Q01DX009 (ip), vehicle: saline) was 86 % of control, the T/C (dose: 0.5 mg/kg/injection, schedule: Q01DX009 (ip), vehicle: saline) was 123 % of control and the T/C (dose: 1.0 mg/kg/injection, schedule: Q01DX009 (ip), vehicle: saline) was 112 % of control.

For `CN=C(N)N/N=C(\C)c1ccc2c(c1)Cc1cc(/C(C)=N/NC(N)=NC)ccc1-2`, the T/C (dose: 0.37 mg/kg/injection, schedule: Q01DX009 (ip), vehicle: saline with Tween-80) was 95 % of control, the T/C (dose: 0.75 mg/kg/injection, schedule: Q01DX009 (ip), vehicle: saline with Tween-80) was 97 % of control and the T/C (dose: 1.5 mg/kg/injection, schedule: Q01DX009 (ip), vehicle: saline with Tween-80) was 94 % of control. The T/C (dose: 3.0 mg/kg/injection, schedule: Q01DX009 (ip), vehicle: saline with Tween-80) was 100 % of control.

For `[Cl][Pt+2][Cl].[NH-]C1CCC1.[NH2-]`, the T/C (dose: 0.75 mg/kg/injection, schedule: Q01DX009 (ip), vehicle: saline) was 101 % of control, the T/C [7] was 111 % of control and the T/C [8] was 124 % of control.

In the case of `ClCCCN1CCCCC1CCl` (centres undefined), the T/C (dose: 0.78 mg/kg/injection, schedule: Q01DX009 (ip), vehicle: saline) is reported as 101 % of control, the T/C (dose: 1.56 mg/kg/injection, schedule: Q01DX009 (ip), vehicle: saline) is reported as 108 % of control and the T/C (dose: 3.12 mg/kg/injection, schedule: Q01DX009 (ip), vehicle: saline) is reported as 98 % of control. For the same compound, the T/C [6] was 101 % of control and the T/C (dose: 12.5 mg/kg/injection, schedule: Q01DX009 (ip), vehicle: saline) was 121 % of control.

For `CCCCCCCCCCCC(=O)NC1CC(O[C@H]2C[C@](O)(C(=O)CO)Cc3c(O)c4c(c(O)c32)C(=O)c2c(OC)cccc2C4=O)OC(C)C1O` (some centres undefined), the T/C (dose: 6.25 mg/kg/injection, schedule: Q01DX009 (ip), vehicle: distilled water + Tween-80) was 96 % of control, the T/C (dose: 12.5 mg/kg/injection, schedule: Q01DX009 (ip), vehicle: distilled water + Tween-80) was 100 % of control and the T/C (dose: 25.0 mg/kg/injection, schedule: Q01DX009 (ip), vehicle: distilled water + Tween-80) was 102 % of control. For the same compound, the T/C (dose: 50.0 mg/kg/injection, schedule: Q01DX009 (ip), vehicle: distilled water + Tween-80) was 119 % of control.

`NC(=O)CCC(N)C(=O)O` (centres undefined) was tested, and the T/C (dose: 25.0 mg/kg/injection, schedule: Q01DX009 (ip), vehicle: suspension in saline) was 109 % of control, the T/C (dose: 50.0 mg/kg/injection, schedule: Q01DX009 (ip), vehicle: suspension in saline) was 111 % of control and the T/C (dose: 100.0 mg/kg/injection, schedule: Q01DX009 (ip), vehicle: suspension in saline) was 107 % of control. For the same compound, the T/C (dose: 200.0 mg/kg/injection, schedule: Q01DX009 (ip), vehicle: suspension in saline) was 102 % of control and the T/C (dose: 400.0 mg/kg/injection, schedule: Q01DX009 (ip), vehicle: suspension in saline) was 94 % of control.

For `CC(=O)Nc1cscc1NC(C)=O`, the T/C [1] was 103 % of control, the T/C [2] was 101 % of control and 106 % of control and the T/C [3] was 98 % of control. For the same compound, the T/C [4] was 94 % of control and 108 % of control and the T/C (dose: 400.0 mg/kg/injection, schedule: Q01DX009 (ip), vehicle: saline with Tween-80) was 112 % of control and 88 % of control.

For `CCCCOCN(COCCCC)C(C)Cc1ccccc1` (centres undefined), the T/C [9] was 96 % of control, the T/C [1] was 107 % of control and the T/C [2] was 104 % of control. The T/C [3] was 92 % of control and the T/C [4] was 89 % of control.

In the case of `C1OC1C1CO1` (centres undefined), the T/C (dose: 1.25 mg/kg/injection, schedule: Q01DX009 (ip), vehicle: suspension in saline) is reported as 101 % of control, the T/C (dose: 2.5 mg/kg/injection, schedule: Q01DX009 (ip), vehicle: suspension in saline) is reported as 112 % of control and the T/C (dose: 5.0 mg/kg/injection, schedule: Q01DX009 (ip), vehicle: suspension in saline) is reported as 105 % of control. For the same compound, the T/C (dose: 10.0 mg/kg/injection, schedule: Q01DX009 (ip), vehicle: suspension in saline) was 99 % of control, the T/C (dose: 20.0 mg/kg/injection, schedule: Q01DX009 (ip), vehicle: suspension in saline) was 101 % of control and the T/C (dose: 40.0 mg/kg/injection, schedule: Q01DX009 (ip), vehicle: suspension in saline) was 108 % of control.

In the case of `O=[N+]([O-])c1ccc(-n2[nH]nnc2=S)cc1`, the T/C [9] is reported as 101 % of control, the T/C [1] is reported as 96 % of control and the T/C [2] is reported as 103 % of control. For the same compound, the T/C [3] was 95 % of control and the T/C [4] was 94 % of control.

For `C[n+]1c2cc(N)ccc2cc2ccc(N)cc21`, the T/C (dose: 1.5 mg/kg/injection, schedule: Q01DX009 (ip), vehicle: saline) was 102 % of control, the T/C [7] was 95 % of control and the T/C [8] was 107 % of control. For the same compound, the T/C (dose: 12.0 mg/kg/injection, schedule: Q01DX009 (ip), vehicle: saline) was 90 % of control.

With `Cc1cc(N)c2ccccc2[n+]1CCCCCCCCCC[n+]1c(C)cc(N)c2ccccc21` the T/C (dose: 0.12 mg/kg/injection, schedule: Q01DX026 (ip), vehicle: dextrose) was 93 % of control, the T/C (dose: 0.25 mg/kg/injection, schedule: Q01DX026 (ip), vehicle: dextrose) was 104 % of control and the T/C (dose: 0.5 mg/kg/injection, schedule: Q01DX026 (ip), vehicle: dextrose) was 96 % of control. For the same compound, the T/C (dose: 0.75 mg/kg/injection, schedule: Q01DX009 (ip), vehicle: dextrose) was 101 % of control, the T/C (dose: 1.0 mg/kg/injection, schedule: Q01DX026 (ip), vehicle: dextrose) was 99 % of control and the T/C (dose: 1.5 mg/kg/injection, schedule: Q01DX009 (ip), vehicle: dextrose) was 95 % of control. The T/C (dose: 2.0 mg/kg/injection, schedule: Q01DX026 (ip), vehicle: dextrose) was 103 % of control and the T/C (dose: 3.0 mg/kg/injection, schedule: Q01DX009 (ip), vehicle: dextrose) was 104 % of control.

With `C[C@@](O)(/C=C/[C@H]1CC=CC(=O)O1)[C@@H](C[C@@H](O)\C=C/C=C\C=C\CO)OP(=O)(O)O` the T/C (dose: 1.56 mg/kg/injection, schedule: Q01DX009 (ip), vehicle: other) was 93 % of control, the T/C (dose: 3.12 mg/kg/injection, schedule: Q01DX009 (ip), vehicle: other) was 91 % of control and 93 % of control and 100 % of control and the T/C (dose: 6.25 mg/kg/injection, schedule: Q01DX009 (ip), vehicle: other) was 92 % of control and 95 % of control and 98 % of control. The T/C (dose: 12.5 mg/kg/injection, schedule: Q01DX009 (ip), vehicle: other) was 100 % of control and 103 % of control (2×) and the T/C (dose: 25.0 mg/kg/injection, schedule: Q01DX009 (ip), vehicle: other) was 114 % of control.

`CCN(CC)c1ccc2[nH]c3c(C(N)=O)cc(=O)c(=O)c=3oc2c1` was tested, and the T/C [9] was 90 % of control, the T/C [1] was 107 % of control and the T/C [2] was 98 % of control. For the same compound, the T/C [3] was 93 % of control.

With `CCCCCCCCCCCCCC#CC(=O)O` the T/C (dose: 3.12 mg/kg/injection, schedule: Q01DX009 (ip), vehicle: saline with Tween-80) was 97 % of control, the T/C (dose: 6.25 mg/kg/injection, schedule: Q01DX009 (ip), vehicle: saline with Tween-80) was 93 % of control and the T/C [9] was 101 % of control. For the same compound, the T/C [1] was 89 % of control and the T/C [2] was 93 % of control.

`CC(=O)OC1=NC(C)c2c1cc(OC(C)=O)[nH]c2=O` (centres undefined) was tested, and the T/C (dose: 12.5 mg/kg/injection, schedule: Q01DX009 (ip), vehicle: Klucel (hydroxypropylcellulose) (HPC)) was 102 % of control, the T/C (dose: 25.0 mg/kg/injection, schedule: Q01DX009 (ip), vehicle: Klucel (hydroxypropylcellulose) (HPC)) was 98 % of control and the T/C [5] was 95 % of control.

`O=NN(CCF)C(=O)NC1C(O)CCCC1O` (centres undefined) was tested, and the T/C (dose: 2.5 mg/kg/injection, schedule: Q01DX009 (ip), vehicle: saline) was 116 % of control, the T/C (dose: 10.0 mg/kg/injection, schedule: Q01DX009 (ip), vehicle: saline) was 312 % of control and the T/C (dose: 20.0 mg/kg/injection, schedule: Q01DX009 (ip), vehicle: saline) was 104 % of control.
